Here are results for 21 compounds from patent publication US20220213052A1, “INHIBITORS OF RNA-BINDING PROTEINS, COMPOSITIONS THEREOF, AND THERAPEUTIC USES THEROF” (The University of North Carolina at Chapel Hill, priority 2019, published 2022).

Each structure is given as a SMILES string. Where a name gives a salt, the structure may show the parent alone. Read-outs that look alike come from different tables or passages of the source.

For assay [1], the system named is triple-negative breast cancer cell line MDA-MB-231. Put plainly: Cytotoxicity assay (WST-8), MDA-MB-231. Format: cell-based. Particulars: Homo sapiens, 96 h incubation. The method, then:
The cytotoxicity of various compounds of the present technology in several cancer cell lines (pancreatic cancer cell line MIAPaCa-2, triple-negative breast cancer cell line MDA-MB-231, and colon cancer cell lines HCT116, HCT116 β/W, and RKO) was assessed by a cytotoxicity assay. Cells were seeded in 96-well culture plates (3,000-5,000 cells/well) and treated with titrated compounds in triplicate. After 96 h incubation, cell growth medium was removed and proliferation reagent WST-8 (Sigma) was added to each well and incubated at 37° C. for 1-3 h. Absorbance was then measured with a plate reader at 450 nm with correction at 650 nm. The results were expressed as the percentage of absorbance of treated wells versus that of vehicle control. IC50, the drug concentration causing 50% growth inhibition, was calculated via sigmoid curve fitting using GraphPad Prism 5.0. The results for those compounds tested against MIAPaCa-2 and MDA-MB-231 are provided in Table 1; the results for those compounds tested against colon cancer cell lines HCT116, HCT116 β/W, and RKO are provided in Table 3.
(In general: Tetrazolium dyes change colour on reduction, which living cells bring about.)

In the next assay the target is Musashi 2 (Msi2) (Homo sapiens, UniProt Q96DH6). Nature of the assay: Msi2 FP assay. Format: binding. The method, then: (§1) With the FP assay of HuR-Msi1ARE binding, the inhibition of the HuR-Msi1ARE interaction by various compounds of the present technology was assessed. Similar FP assays for Musashi 2 (Msi2) and for RNA-binding protein Lin-28 homolog B (LIN28B) were also performed on various compounds of the present technology. The results of such assays for HuR are provided in Table 1 alongside the compound structures as well as ID numbers for ease of reference; the results of such assays for Msi1, Msi2, and LIN28B are provided in Table 2.
Sequence of Musashi 2 (Msi2) (Q96DH6 whole entry, species assumed): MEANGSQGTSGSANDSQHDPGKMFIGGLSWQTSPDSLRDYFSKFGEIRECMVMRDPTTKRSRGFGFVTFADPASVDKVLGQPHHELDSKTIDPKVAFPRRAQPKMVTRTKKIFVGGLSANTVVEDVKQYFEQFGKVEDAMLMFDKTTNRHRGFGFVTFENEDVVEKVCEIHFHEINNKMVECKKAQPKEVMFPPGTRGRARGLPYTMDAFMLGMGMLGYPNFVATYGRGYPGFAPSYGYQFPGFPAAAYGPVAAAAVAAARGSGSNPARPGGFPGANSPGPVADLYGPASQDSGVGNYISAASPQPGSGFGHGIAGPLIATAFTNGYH

The target of the next assay is Msi1 (Homo sapiens, UniProt O43347). Nature of the assay: Msi1 FP assay. Format: binding. The method, then: as §1
Sequence of Msi1 (O43347 whole entry, species assumed): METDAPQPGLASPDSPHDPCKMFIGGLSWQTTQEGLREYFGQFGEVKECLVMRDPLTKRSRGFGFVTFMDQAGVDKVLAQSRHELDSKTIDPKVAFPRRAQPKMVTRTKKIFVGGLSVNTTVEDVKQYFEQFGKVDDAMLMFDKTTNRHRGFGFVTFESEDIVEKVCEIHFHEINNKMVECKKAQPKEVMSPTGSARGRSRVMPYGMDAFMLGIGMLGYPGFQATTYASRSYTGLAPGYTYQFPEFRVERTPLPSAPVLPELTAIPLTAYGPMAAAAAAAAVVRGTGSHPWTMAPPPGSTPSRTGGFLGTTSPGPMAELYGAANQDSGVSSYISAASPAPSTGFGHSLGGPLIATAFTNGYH
Assay [2] has as its target T1, full-length human HuR protein (Homo sapiens, UniProt Q15717).
T1 construct: full-length human HuR protein was produced by the KU COBRE-PSF Protein Purification Group; made in house
Put plainly: FP assay of HuR-Msi1 ARE binding inhibition. Particulars: HuR-Msi1 ARE interaction; read-out: HuR Ki via FP assay.
Source text: A fluorescence polarization (FP)-based binding assay was utilized to assess the inhibition of HuR protein interaction with the ARE site of Msi1 mRNA (“HuR-Msi1^ARE”) by compounds of interest. Briefly, full-length human HuR protein was produced by the KU COBRE-PSF Protein Purification Group and Bcl2, Msi1 and XIAP mRNA sequences (16 nt) were designed based on literature precedent^23,24,31,32. Fluorescein labeled RNAs were purchased from Dharmacon with the following sequences: Msi1 RNA: 5′-[…]-3′-fluorescein; Bcl-2 RNA: 5′-[…]-3′-fluorescein; XIAP RNA: 5′-[…] UGUC-3′-fluorescein, and a 16-nt degenerative RNA with 3′-fluorescein label was used as a negative control.
as §1

The target of assay [3] is T2, RNA-binding protein Lin-28 homolog B (LIN28B) (Homo sapiens, UniProt Q6ZN17).
T2 sequence (Q6ZN17 1-250): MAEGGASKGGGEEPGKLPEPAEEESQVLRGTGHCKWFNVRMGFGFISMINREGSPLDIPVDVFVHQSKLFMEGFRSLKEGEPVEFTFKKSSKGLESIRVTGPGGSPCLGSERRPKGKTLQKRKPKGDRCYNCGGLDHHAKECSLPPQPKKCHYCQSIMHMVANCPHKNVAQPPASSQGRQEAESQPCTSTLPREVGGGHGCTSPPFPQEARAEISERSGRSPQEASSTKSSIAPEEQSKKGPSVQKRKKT
Nature of the assay: LIN28B FP assay. The method, then: as §1

Setting [4] is: cell without (RRM1) mark, read-out: Msi2 (Ki).
The mark [5] stands for this setting: cell marked (RRM1), read-out: Msi2 (Ki) (RRM1).

T1 sequence (Q15717 whole entry): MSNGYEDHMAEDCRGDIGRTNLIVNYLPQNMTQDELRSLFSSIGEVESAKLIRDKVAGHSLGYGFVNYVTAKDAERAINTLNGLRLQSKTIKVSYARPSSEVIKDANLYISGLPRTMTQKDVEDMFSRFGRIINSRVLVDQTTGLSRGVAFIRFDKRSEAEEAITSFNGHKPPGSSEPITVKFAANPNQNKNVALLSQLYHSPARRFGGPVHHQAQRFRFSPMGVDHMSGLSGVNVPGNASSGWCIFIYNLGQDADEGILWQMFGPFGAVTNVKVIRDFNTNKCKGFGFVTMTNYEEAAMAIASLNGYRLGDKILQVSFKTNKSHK

`CC(C)(C)c1ccc(C(=O)Nc2ccc3sc(/C=C/C(N)=O)cc3c2)cc1` [KH-19C, (E)-N-(2-(3-amino-3-oxoprop-1-en-1-yl)benzo[b]thiophen-5-yl)-4-(tert-butyl)benzamide]: in assay [1], half-maximal inhibition (IC50) was put at 8.68 µM. Moreover, the Ki (as a rule, the equilibrium dissociation constant of an inhibitor or competing ligand from its target) at Musashi 2 (Msi2) (setting [4]) is 4.83 µM; at Msi1, more than 20 µM; in assay [2], 0.6 µM; in assay [3], more than 20 µM.
On to `CC(C)(C)c1ccc(C(=O)Nc2ccc3sc(/C=C/C(=O)NN)cc3c2)cc1` [KH-19E, (E)-4-(tert-butyl)-N-(2-(3-hydrazinyl-3-oxoprop-1-en-1-yl)benzo[b]thiophen-5-yl)benzamide], for which the IC50 – broadly, the concentration that gives 50% inhibition – in assay [1] was found to be 28.4 µM. In addition, the Ki is more than 20 µM at Musashi 2 (Msi2) (setting [4]), more than 20 µM on Msi1, 0.19 µM in assay [2] and more than 20 µM in assay [3].
Regarding `CC(C)(C)c1ccc(C(=O)Nc2ccc3sc(CCC(=O)NO)cc3c2)cc1` [KH-22, 4-(tert-Butyl)-N-(2-(3-(hydroxyamino)-3-oxopropyl)benzo[b]thiophen-5-yl)benzamide], in assay [1], half-maximal inhibition (IC50) required 3.48 µM. Besides, the Ki on Musashi 2 (Msi2) (setting [4]) was more than 20 µM; on Msi1, more than 20 µM; in assay [2], 0.83 µM; in assay [3], more than 20 µM.
Regarding `CC(C)(C)c1ccc(C(=O)Nc2ccc3sc(CCC(=O)O)cc3c2)cc1` [KH-22A, 3-(5-(4-(tert-Butyl)benzamido)benzo[b]thiophen-2-yl)propanoic acid], in assay [1], half-maximal inhibition (IC50) required 19.8 µM. Moreover, the Ki at Musashi 2 (Msi2) (setting [4]) is more than 20 µM; on Msi1, more than 20 µM; in assay [2], 3.83 µM; in assay [3] it was more than 20 µM.
With `CC(C)(C)c1ccc(C(=O)Nc2ccc3sc(CCC(N)=O)cc3c2)cc1` [KH-22C, N-(2-(3-amino-3-oxopropyl)benzo[b]thiophen-5-yl)-4-(tert-butyl)benzamide], half-maximal inhibition in assay [1] (IC50) required 2.87 µM. The Ki is more than 20 µM at Musashi 2 (Msi2) (setting [4]), more than 20 µM on Msi1, 7 µM in assay [2] and more than 20 µM in assay [3].
In assay [1], `CC(C)(C)c1ccc(C(=O)Nc2ccc3sc(CCC(=O)NN)cc3c2)cc1` [KH-22E, 4-(tert-butyl)-N-(2-(3-hydrazinyl-3-oxopropyl)benzo[b]thiophen-5-yl)benzamide] returned an IC50 of 8.56 µM. Besides, the Ki at Musashi 2 (Msi2) (setting [4]) is more than 20 µM; on Msi1 it was more than 20 µM; in assay [2], 1.06 µM; in assay [3], more than 20 µM.
Regarding `O=C(O)/C=C/c1cc2cc(NC(=O)c3ccc(F)cc3)ccc2s1` [KH-23A, (E)-3-(5-(4-Fluorobenzamido)benzo[b]thiophen-2-yl)acrylic acid], the Ki (on Musashi 2 (Msi2) (setting [4]); at Msi1; in assay [2]; in assay [3]) was more than 20 µM throughout.
Turning to `Cc1ccc(C(=O)Nc2ccc3sc(CCC(=O)NO)cc3c2)cc1` [KH-27, N-(2-(3-(hydroxyamino)-3-oxopropyl)benzo[b]thiophen-5-yl)-4-methylbenzamide], half-maximal inhibition in assay [1] (IC50) required 9.34 µM. Moreover, the Ki on Musashi 2 (Msi2) (setting [4]) is more than 20 µM; on Msi1, more than 20 µM; in assay [2], 3.72 µM; in assay [3], more than 20 µM.
As for `Cc1ccc(C(=O)Nc2ccc3sc(CCC(=O)O)cc3c2)cc1` [KH-27A, 3-(5-(4-Methylbenzamido)benzo[b]thiophen-2-yl)propanoic acid], the IC50 in assay [1] is more than 100 µM. Moreover, the Ki (at Musashi 2 (Msi2) (setting [4]); on Msi1; in assay [2]; in assay [3]) was more than 20 µM in each case.
On to `O=C(O)CCc1cc2cc(NC(=O)c3ccc(F)cc3)ccc2s1` [KH-28A, 3-(5-(4-Fluorobenzamido)benzo[b]thiophen-2-yl)propanoic acid], for which the Ki (at Musashi 2 (Msi2) (setting [4]); at Msi1; in assay [2]; in assay [3]) was more than 20 µM throughout.
Consider `O=C(CCc1cc2cc(NC(=O)c3ccc(C(F)(F)F)cc3)ccc2s1)NO` [KH-29, N-(2-(3-(hydroxyamino)-3-oxopropyl)benzo[b]thiophen-5-yl)-4-(trifluoromethyl)benzamide], for which, in assay [1], the IC50 came out at 12.4 µM. Further, the Ki at Musashi 2 (Msi2) (setting [4]) was more than 20 µM; at Msi1, more than 20 µM; in assay [2], 2.51 µM; in assay [3] it was more than 20 µM.
The compound `NNC(=O)CCc1cc2cc(NC(=O)c3ccc(C(F)(F)F)cc3)ccc2s1` [KH-29E] yielded an IC50 in assay [1] of 71.2 µM. Besides, the Ki on Musashi 2 (Msi2) (setting [4]) was more than 20 µM; at Msi1, more than 20 µM; in assay [2] it was 3.32 µM; in assay [3], more than 20 µM.
Turning to `CC(C)(C)c1cccc(C(=O)Nc2ccc3sc(CCC(=O)NO)cc3c2)c1` [KH-30, 3-(tert-Butyl)-N-(2-(3-(hydroxyamino)-3-oxopropyl)benzo[b]thiophen-5-yl)benzamide], half-maximal inhibition in assay [1] (IC50) required 5.51 µM. The Ki is more than 20 µM on Musashi 2 (Msi2) (setting [4]), more than 20 µM at Msi1, 4.98 µM in assay [2] and more than 20 µM in assay [3].
In assay [1], `CC(C)(C)c1cccc(C(=O)Nc2ccc3sc(CCC(=O)O)cc3c2)c1` [KH-30A, 3-(5-(3-(tert-butyl)benzamido)benzo[b]thiophen-2-yl)propanoic acid] had an IC50 of more than 100 µM. In addition, the Ki (at Musashi 2 (Msi2) (setting [4]); at Msi1; in assay [2]; in assay [3]) was more than 20 µM in each case.
Take `CC(C)(C)c1cccc(C(=O)Nc2ccc3sc(CCC(=O)NN)cc3c2)c1` [KH-30E]: half-maximal inhibition in assay [1] (IC50) was put at 22.7 µM. The Ki at Musashi 2 (Msi2) (setting [4]) is more than 20 µM; at Msi1 it was more than 20 µM; in assay [2], 4.19 µM; in assay [3] it was more than 20 µM.
Compound `CC(C)(C)c1cccc(C(=O)Nc2ccc3sc(/C=C/C(=O)NO)cc3c2)c1` [KH-31, (E)-3-(tert-Butyl)-N-(2-(3-(hydroxyamino)-3-oxoprop-1-en-1-yl)benzo[b]thiophen-5-yl)benzamide] came in with an IC50 in assay [1] of 9.74 µM. The Ki came out at 1.3 µM on Musashi 2 (Msi2) (setting [5]), 3.89 µM at Msi1, 0.47 µM in assay [2] and 3 µM in assay [3].
Consider `CN(C)c1ccc(C(=O)Nc2ccc3[nH]c(C(=O)NO)cc3c2)cc1` [KH-57, 5-(4-(dimethylamino)benzamido)-N-hydroxy-1H-indole-2-carboxamide], for which the IC50 in assay [1] came out at 11.3 µM. In addition, the Ki at Musashi 2 (Msi2) (setting [4]) is more than 20 µM; in assay [2], 3.31 µM; in assay [3] it was more than 20 µM.
In assay [1], `CN(C)c1ccc(C(=O)Nc2ccc3[nH]c(C(=O)O)cc3c2)cc1` [KH-57A, 5-(4-(dimethylamino)benzamido)-1H-indole-2-carboxylic acid] came in with an IC50 of 100 µM. The inhibitory constant (Ki) was 2.1 µM on Musashi 2 (Msi2) (setting [5]), 0.78 µM in assay [2] and more than 20 µM in assay [3].
The corresponding values for `CN(C)c1ccc(C(=O)Nc2ccc3sc(C(=O)O)cc3c2)cc1` [KH-58A, 5-(4-(Dimethylamino)benzamido)benzo[b]thiophene-2-carboxylic acid] are more than 100 µM, 6.6 µM, 2.37 µM and more than 20 µM.
Compound `O=C(Nc1ccc2sc(C(=O)NO)cc2c1)c1ccccn1` [KH-60, N-(2-(hydroxycarbamoyl)benzo[b]thiophen-5-yl)picolinamide] displayed an IC50 in assay [1] of 4.43 µM. The results for the Ki (on Musashi 2 (Msi2) (setting [4]); in assay [2]; in assay [3]) were more than 20 µM, 3.23 µM and more than 20 µM, respectively.
`O=C(Nc1ccc2sc(C(=O)O)cc2c1)c1ccccn1` [KH-60A, 5-(Picolinamido)benzo[b]thiophene-2-carboxylic acid hydrochloride] registered an IC50 in assay [1] of more than 100 µM. The Ki is 4.6 µM on Musashi 2 (Msi2) (setting [5]), 1.14 µM in assay [2] and more than 20 µM in assay [3].
